Source: the supplement of paper PMC10307832

What was measured:
Assay in all cases: relative viability (nuclei count vs DMSO), 5 days (fraction); higher = more cells survive
COR-L 105 = test system: COR-L 105
In short: (§1)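 Relative viability was taken as the ratio of nuclei in treated wells to nuclei in vehicle wells. Lung cancer cell lines in 1536-well plates received compounds by pin tool one day after seeding, either one drug alone or a fixed anchor-drug dose plus five library-drug doses (not always all listed) in √10 steps. Nuclei were counted on 4× images after 5 days of treatment, and values are medians of duplicate plates.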

LCLC-103H = test system: LCLC-103H
In short: as §1

NCI-H1915 = test system: NCI-H1915
In short: as §1

SW 1573 = test system: SW 1573
In short: as §1

NCI-H522 = test system: NCI-H522
In short: as §1

NCI-H23 = test system: NCI-H23
In short: as §1

HARA = test system: HARA
In short: as §1

NCI-H1437 = test system: NCI-H1437
In short: as §1

HCC-366 = test system: HCC-366
In short: as §1

EMC-BAC-2 = test system: EMC-BAC-2
In short: as §1

NCI-H460 = test system: NCI-H460
In short: as §1

SK-LU-1 = test system: SK-LU-1
In short: as §1

CAL-12T = test system: CAL-12T
In short: as §1

NCI-H2009 = test system: NCI-H2009
In short: as §1

NCI-H1395 = test system: NCI-H1395
In short: as §1

HOP-62 = test system: HOP-62
In short: as §1

HCC-827 = test system: HCC-827
In short: as §1

NCI-H727 = test system: NCI-H727
In short: as §1

A-427 = test system: A-427
In short: as §1

NCI-H2228 = test system: NCI-H2228
In short: as §1

NCI-H1755 = test system: NCI-H1755
In short: as §1

SMILES: Nc1ccn([C@@H]2O[C@H](CO)[C@@H](O)[C@@H]2O)c(=O)n1 [Cytarabine] + O=C(CCCCCCC(=O)Nc1ccccc1)NO [Vorinostat] (partner 1 µM)
- relative viability (COR-L 105; first compound 0.005 µM): 0.816
- relative viability (COR-L 105; first compound 0.01581 µM): 0.79
- relative viability (COR-L 105; first compound 0.05 µM): 0.55
- relative viability (COR-L 105; first compound 0.1581 µM): 0.583
- relative viability (COR-L 105; first compound 0.5 µM): 0.418
- relative viability (LCLC-103H; first compound 0.005 µM): 0.806
- relative viability (LCLC-103H; first compound 0.01581 µM): 0.861
- relative viability (LCLC-103H; first compound 0.05 µM): 0.758
- relative viability (LCLC-103H; first compound 0.1581 µM): 0.745
- relative viability (LCLC-103H; first compound 0.5 µM): 0.692
- relative viability (NCI-H1915; first compound 0.005 µM): 0.477
- relative viability (NCI-H1915; first compound 0.01581 µM): 0.424
- relative viability (NCI-H1915; first compound 0.05 µM): 0.375
- relative viability (NCI-H1915; first compound 0.1581 µM): 0.318
- relative viability (NCI-H1915; first compound 0.5 µM): 0.235
- relative viability (SW 1573; first compound 0.005 µM): 0.606
- relative viability (SW 1573; first compound 0.01581 µM): 0.552
- relative viability (SW 1573; first compound 0.05 µM): 0.677
- relative viability (SW 1573; first compound 0.1581 µM): 0.225
- relative viability (SW 1573; first compound 0.5 µM): 0.15
- relative viability (NCI-H522; first compound 0.005 µM): 0.993
- relative viability (NCI-H522; first compound 0.01581 µM): 0.837
- relative viability (NCI-H522; first compound 0.05 µM): 0.694
- relative viability (NCI-H522; first compound 0.1581 µM): 0.615
- relative viability (NCI-H522; first compound 0.5 µM): 0.563
- relative viability (NCI-H23; first compound 0.005 µM): 0.65
- relative viability (NCI-H23; first compound 0.01581 µM): 0.511
- relative viability (NCI-H23; first compound 0.05 µM): 0.306
- relative viability (NCI-H23; first compound 0.1581 µM): 0.156
- relative viability (NCI-H23; first compound 0.5 µM): 0.122
- relative viability (HARA; first compound 0.005 µM): 0.694
- relative viability (HARA; first compound 0.01581 µM): 0.44
- relative viability (HARA; first compound 0.05 µM): 0.52
- relative viability (HARA; first compound 0.1581 µM): 0.458
- relative viability (HARA; first compound 0.5 µM): 0.347
- relative viability (NCI-H1437; first compound 0.005 µM): 0.889
- relative viability (NCI-H1437; first compound 0.01581 µM): 0.77
- relative viability (NCI-H1437; first compound 0.05 µM): 0.605
- relative viability (NCI-H1437; first compound 0.1581 µM): 0.423
- relative viability (NCI-H1437; first compound 0.5 µM): 0.303
- relative viability (HCC-366; first compound 0.005 µM): 0.31
- relative viability (HCC-366; first compound 0.01581 µM): 0.347
- relative viability (HCC-366; first compound 0.05 µM): 0.301
- relative viability (HCC-366; first compound 0.1581 µM): 0.087
- relative viability (HCC-366; first compound 0.5 µM): 0.0576
- relative viability (EMC-BAC-2; first compound 0.005 µM): 0.494
- relative viability (EMC-BAC-2; first compound 0.01581 µM): 0.448
- relative viability (EMC-BAC-2; first compound 0.05 µM): 0.165
- relative viability (EMC-BAC-2; first compound 0.1581 µM): 0.29
- relative viability (EMC-BAC-2; first compound 0.5 µM): 0.182
- relative viability (NCI-H460; first compound 0.005 µM): 0.422
- relative viability (NCI-H460; first compound 0.01581 µM): 0.436
- relative viability (NCI-H460; first compound 0.05 µM): 0.259
- relative viability (NCI-H460; first compound 0.1581 µM): 0.0538
- relative viability (NCI-H460; first compound 0.5 µM): 0.0412
- relative viability (SK-LU-1; first compound 0.005 µM): 0.509
- relative viability (SK-LU-1; first compound 0.01581 µM): 0.665
- relative viability (SK-LU-1; first compound 0.05 µM): 0.632
- relative viability (SK-LU-1; first compound 0.1581 µM): 0.479
- relative viability (SK-LU-1; first compound 0.5 µM): 0.422
- relative viability (CAL-12T; first compound 0.005 µM): 0.53
- relative viability (CAL-12T; first compound 0.01581 µM): 0.68
- relative viability (CAL-12T; first compound 0.05 µM): 0.739
- relative viability (CAL-12T; first compound 0.1581 µM): 0.477
- relative viability (CAL-12T; first compound 0.5 µM): 0.27
- relative viability (NCI-H2009; first compound 0.005 µM): 0.751
- relative viability (NCI-H2009; first compound 0.01581 µM): 0.698
- relative viability (NCI-H2009; first compound 0.05 µM): 0.71
- relative viability (NCI-H2009; first compound 0.1581 µM): 0.52
- relative viability (NCI-H2009; first compound 0.5 µM): 0.198
- relative viability (NCI-H1395; first compound 0.005 µM): 0.692
- relative viability (NCI-H1395; first compound 0.01581 µM): 0.586
- relative viability (NCI-H1395; first compound 0.05 µM): 0.5
- relative viability (NCI-H1395; first compound 0.1581 µM): 0.357
- relative viability (NCI-H1395; first compound 0.5 µM): 0.349
- relative viability (HOP-62; first compound 0.005 µM): 0.633
- relative viability (HOP-62; first compound 0.01581 µM): 0.406
- relative viability (HOP-62; first compound 0.05 µM): 0.437
- relative viability (HOP-62; first compound 0.1581 µM): 0.115
- relative viability (HOP-62; first compound 0.5 µM): 0.0936
- relative viability (HCC-827; first compound 0.005 µM): 0.539
- relative viability (HCC-827; first compound 0.01581 µM): 0.331
- relative viability (HCC-827; first compound 0.05 µM): 0.169
- relative viability (HCC-827; first compound 0.1581 µM): 0.145
- relative viability (HCC-827; first compound 0.5 µM): 0.141
- relative viability (NCI-H727; first compound 0.005 µM): 1.22
- relative viability (NCI-H727; first compound 0.01581 µM): 1.16
- relative viability (NCI-H727; first compound 0.05 µM): 0.566
- relative viability (NCI-H727; first compound 0.1581 µM): 0.552
- relative viability (NCI-H727; first compound 0.5 µM): 0.524
- relative viability (A-427; first compound 0.005 µM): 0.758
- relative viability (A-427; first compound 0.01581 µM): 0.636
- relative viability (A-427; first compound 0.05 µM): 0.325
- relative viability (A-427; first compound 0.1581 µM): 0.339
- relative viability (A-427; first compound 0.5 µM): 0.306
- relative viability (NCI-H2228; first compound 0.005 µM): 0.472
- relative viability (NCI-H2228; first compound 0.01581 µM): 0.275
- relative viability (NCI-H2228; first compound 0.05 µM): 0.197
- relative viability (NCI-H2228; first compound 0.1581 µM): 0.106
- relative viability (NCI-H2228; first compound 0.5 µM): 0.0947
- relative viability (NCI-H1755; first compound 0.005 µM): 0.823
- relative viability (NCI-H1755; first compound 0.01581 µM): 0.794
- relative viability (NCI-H1755; first compound 0.05 µM): 0.685
- relative viability (NCI-H1755; first compound 0.1581 µM): 0.502
- relative viability (NCI-H1755; first compound 0.5 µM): 0.375
